Row | SMILES | melting point
1 | CC(NC(=O)Nc1ccc(-c2c(C#N)c3ccc(OC4CCOC4)cc3n2C2CC2)cc1)c1ccc(F)cc1 (stereo not drawn) [Compound 1448] | 182 to 184 °C
2 | CC(C)NC(=O)Nc1ccc(-c2c(C#N)c3ccc(OC4CCOC4)cc3n2C2CCC2)cc1 (stereo not drawn) [Compound 1462] | 183 to 184 °C
3 | CC(C)OC(=O)Nc1ccc(-c2c(C#N)c3ccc(OCCSc4ccccn4)cc3n2C2CCC2)cc1 [Compound 2697] | 145 to 146 °C
4 | N#Cc1c(-c2ccc(NC(=O)O[C@H](c3ccccc3)C(F)(F)F)cc2)n(C2CCC2)c2cc(OCC3OCCO3)ccc12 [Compound 2806] | 175 to 176 °C
5 | CC(C)OC(=O)Nc1ccc(-c2c(C#N)c3cc(OCCn4ccnc4)ccc3n2C2CCC2)cc1 [Compound 2631] | 185 to 188 °C
6 | CC(C)OC(=O)Nc1ccc(-c2c(C#N)c3ccc(OCCN4CCC(O)C4)cc3n2C2CCC2)cc1 (stereo not drawn) [Compound 1435] | 161 to 165 °C
7 | CC(C)OC(=O)Nc1ccc(-c2c(C#N)c3ccc(OCCC(O)CO)cc3n2C2CCC2)cc1 (stereo not drawn) [compound 1429, {4-[3-cyano-1-cyclobutyl-6-(3,4-dihydroxy-butoxy)-1H-indol-2-yl]-phenyl}-carbamic acid isopropyl ester] | 132 to 134 °C
8 | CC(OC(=O)Nc1ccc(-c2c(C#N)c3ccc(OC4COCOC4)cc3n2C2CCC2)cc1)C(C)(C)C (stereo not drawn) [Compound 2861] | 221 to 232 °C (dec.)
9 | CCOP(=O)(Nc1ccc(-c2c(C#N)c3ccc(OC4CCOCC4)cc3n2C2CCC2)cc1)OCC [Compound 2744] | 195 to 197 °C
10 | CCOCCOc1ccc2c(C#N)c(-c3ccc(NC(=O)NC(C)C)cc3)n(C3CCC3)c2c1 [Compound 2612] | 148 to 150 °C

Continued, values first:

Row | melting point | SMILES
11 | 215 to 217 °C | Cc1csc(Nc2ccc(-c3c(C#N)c4ccc(OC5CCOCC5)cc4n3C3CCC3)cc2)n1 [Compound 3152]
12 | 234 to 235 °C | CC(C)NC(=O)Nc1ccc(-c2c(C#N)c3ccc(N4CCOCC4)cc3n2C2CCC2)cc1 [Compound 2862]
13 | 124 to 127 °C | CN1CCN(C(=O)c2ccc3c(C#N)c(-c4ccc(NS(=O)(=O)C5CC5)cc4)n(C4CCC4)c3c2)CC1 [Compound 3114]
14 | 227 to 230 °C | CCCS(=O)(=O)Nc1ccc(-c2c(C#N)c3ccc(Oc4nccnc4C)cc3n2C2CCC2)cc1 [Compound 2931]
15 | 226 to 231 °C | C[C@@H](OC(=O)Nc1ccc(-c2c(C#N)c3ccc(OC4CCS(=O)(=O)CC4)cc3n2C2CCC2)cc1)C1CC1 [Compound 3186]
16 | 172 to 174 °C | Cc1ccnc(Oc2ccc3c(C#N)c(-c4ccc(NC(=O)O[C@H](C)C5CC5)cc4)n(C4CCC4)c3c2)n1 [Compound 2913]
17 | 215 to 216 °C | N#Cc1c(-c2ccc(NC(=O)OC3CCC3)cc2)n(C2CCC2)c2cc(OC3COCOC3)ccc12 [Compound 2872]
18 | 280 to 281 °C | Cc1cccn(-c2ccc3c(C#N)c(-c4ccc(NC(=O)O[C@H](C)C5CC5)cc4)n(C4CCC4)c3c2)c1=O [Compound 3338]
19 | 229 to 234 °C | CCCS(=O)(=O)Nc1ccc(-c2c(C#N)c3ccc(N4CCCC4)cc3n2C2CCC2)cc1 [Compound 2955]
20 | 208 to 210 °C | C[C@@H](OC(=O)Nc1ccc(-c2c(C#N)c3ccc(-c4cccc(Cl)n4)cc3n2C2CCC2)cc1)C1CC1 [Compound 3000]
21 | 170 to 230 °C | N#Cc1c(-c2ccc(NC(=O)NC3CCC3)cc2)n(CC2CC2)c2cc(N3CCOCC3)ccc12 [Compound 2876]
22 | 212 to 214 °C | CCC1(S(=O)(=O)Nc2ccc(-c3c(C#N)c4ccc(C(=O)N5CCOCC5)cc4n3C3CCC3)cc2)CC1 [Compound 2965]
23 | 144 to 146 °C | CC(C)NS(=O)(=O)Nc1ccc(-c2c(C#N)c3ccc(Oc4nccnc4Cl)cc3n2C2CCC2)cc1 [Compound 2946]
24 | 176 to 179 °C | CCCS(=O)(=O)Nc1ccc(-c2c(C#N)c3ccc(N4CCOCC4)cc3n2C2CCC2)cc1 [Compound 3013]

— patent US7772271B2 (priority 2004, dated 2010)
